Laboratory results taken from patent publication US20250368687A1, “SHORT SYNTHETIC PEPTIDES AND USES THEREOF IN THE TREATMENT OF ENTEROVIRUS INFECTION” (CITY UNIVERSITY OF HONG KONG, priority 2024, published 2025).

Columns and labels:
Assay type in all cases: cell-based
[1] = system: Hsp27 and hnRNP A1 redistribution in RD cells; experiment: Immunofluorescence colocalization assay of Hsp27/hnRNP A1 redistribution, RD cells with or without EV-A71 infection; details: 25 μM for 2h; for redistribution of Hsp27 and hnRNP A1 in EV-A71-infected RD cells: EV-A71 MOI 40 for 6h
Method: (§1) The cells on coverslips were infected with EV-A71 at the multiplicity of infection (MOI) of 40 for 6 hrs to assure the high efficiency of viral infection. Then the cells were fixed by 4% paraformaldehyde for 20 min, permeabilized by 0.5% Triton X-100 for 15 min, blocked with 5% BSA for 2 hrs, and stained by incubation with anti-Hsp27 (GTX101145) and anti-hnRNP A1 (sc-32301) antibody, then with Alexa Fluor 488 conjugated anti-rabbit antibody and Alexa Fluor 594 conjugated anti-mouse antibody respectively. After washing four times with 0.2% Triton X-100, the nuclei were stained with DAPI or Hoechst for 5 min. The images were captured by a Nikon A1HD25 High speed and Large Field of View Confocal Microscope. Colocalization analysis was conducted using the JACoP-plugin of the extended ImageJ version Fiji. The M1 colocalization coefficient was computed to illustrate the colocalization levels of Hsp27 and hnRNP A1 overlapped with Hoechst.
Hsp27 is predominantly located in the cytoplasm, however, stress (e.g., heat shock, virus infection) can induce partial redistribution of Hsp27 from the cytoplasm to the nucleus, concomitantly with its phosphorylation. We thus postulated that the cellular redistribution of Hsp27 may be associated with its phosphorylation upon EV-A71 infection. To verify the hypothesis, RD cells were with SB203580 at 0, 2, 4, and 8 μM for 2 h, and the cells were infected with EV-A71 for 6 h. […] The colocalization of Hsp27 and DAPI, which stands for the level of redistribution of Hsp27, was also quantified. The colocalization coefficient M1 was computed as the fraction of Hsp27 colocalized with DAPI in the total Hsp27 area using the JACoP-plugin in FIJI.
We hypothesized that peptides S78 and S82A could interfere with Ser78 phosphorylation while peptides S78A (Ser78 replaced by Ala78) would not affect the phosphorylation of Ser78 of Hsp27. […] RD cells were pre-treated with peptide S78, S78A or S82A at the concentrations of 25 μM for 2h and then infected with or without EV-A71 at an MOI of 40 for 6h.

[2] = system: EV-A71 IRES activity; experiment: Dual-luciferase IRES reporter assay in HEK 293T cells pre-treated with peptides; details: 25 μM for 2 hours, 24 h (FIG. 11A)
Method: (§2) FIGS. 10A-10K. Peptide S78 inhibited EV-A71 replication and propagation. (FIG. 10A) RD cells were pre-treated with peptides S78 or for 2 hours and infected with EV-A71 at the MOI of 10 for 6 hours. Cell lysates were collected for western blot assay. Hsp27 phosphorylation on Ser 15, 78, 82 were detected by specific antibodies. β-Actin were detected as internal control. (FIG. 10B) Densitometric analysis of FIG. 9A. (FIG. 10C) HEK 293T cells were pre-treated with peptides S78 or S78A at the concentration of 25 μM for 2 hours and then co-transfected with Hsp27-WT plasmid (800 ng), pIRES reporter plasmid (200 ng) and 2A^pro-expressing plasmid or 2AC110A-expressing plasmid (200 ng) for 24 h, then the luciferase activity was measured. (FIG. 10D-10E) RD cells were treated with peptides S78 or S78A and then infected with EV-A71. EV-A71 VP1 were detected. (FIG. 10F) RD cells were treated with peptides and then infected with EV-A71 at the MOI of 1 for 12 hours. The EV-A71-induced CPE was captured. (FIG. 10G-10H) Intracellular viral RNA was extracted and quantified by qPCR. (FIG. 10I) Densitometric analysis FIG. 9D-E. (FIG. 10J) RD cells were treated with peptides S78 or and then infected with EV-A71 at the MOI of 1 for 12 hours. Extracellular viral RNA was extracted and quantified by qPCR. (FIG. 10K) Viral titration was calculated by TCID50. The Statistical analyses were carried out using Student's t-test. *: p<0.05, **: p<0.01, ***: p<0.001. Data are expressed as mean ±SD.
(§3) FIGS. 11A-11G Inhibition of EV-A71 Protein Translation and Viral Reproduction by peptide S82A. (FIG. 11A) HEK 293T cells were pre-treated with peptides NC, S78, S78A, S82A, or S78-3A at the concentration of 25 μM for 2 hours and then co-transfected with Hsp27-WT plasmid (800 ng), pIRES reporter plasmid (200 ng) and 2A^pro-expressing plasmid for 24 h, then the luciferase activity was measured. (FIG. 11B) RD cells were pre-treated with peptides NC at indicated concentrations for 2 hours and infected with EV-A71 at the MOI of 1 for 9 hours. Intracellular viral RNA was extracted and quantified by qPCR. […] EV-A71 VP1 were detected. β-Actin was detected as an internal control. (FIG. 11F) Densitometric analysis of the EV-A71 VP1 level in FIG. S7C-E was quantified and normalized with β-Actin using ImageJ. […] Viral titration was calculated. […] Data are expressed as mean ±SD.
HEK 293T cells were seeded in 24-wells, and then co-transfected with plasmids to simultaneously express 2A^pro (200 ng), pIRES reporter (200 ng), and the wild-type Hsp27 or its mutants (800 ng). […] The Renilla luciferase (RLuc) and Firefly luciferase (FLuc) activity were determined by using a dual-luciferase reporter assay (Promega) according to the manufacturer's instructions in a Lumat LB9507 bioluminometer.

[3] = system: EV-A71 VP1; experiment: Western blot of EV-A71 VP1 level in RD cells; details: for reduction of VP1 level (densitometric assay): 50 μM; for EV-A71 VP1 protein level (in words): indicated concentrations
Method: as §2
FIGS. 11A-11G Inhibition of EV-A71 Protein Translation and Viral Reproduction by peptide S82A. (FIG. 11A) HEK 293T cells were pre-treated with peptides NC, S78, S78A, S82A, or S78-3A at the concentration of 25 μM for 2 hours and then co-transfected with Hsp27-WT plasmid (800 ng), pIRES reporter plasmid (200 ng) and 2A^pro-expressing plasmid for 24 h, then the luciferase activity was measured. (FIG. 11B) RD cells were pre-treated with peptides NC at indicated concentrations for 2 hours and infected with EV-A71 at the MOI of 1 for 9 hours. Intracellular viral RNA was extracted and quantified by qPCR. (FIG. 11C-11E) RD cells were treated with peptides NC, S82A, or S78-3A at indicated concentrations for 2 hours and then infected with EV-A71 at the MOI of 1 for 9 hours. Cell lysates were collected for western blot assay. EV-A71 VP1 were detected. β-Actin was detected as an internal control. (FIG. 11F) Densitometric analysis of the EV-A71 VP1 level in FIG. S7C-E was quantified and normalized with β-Actin using ImageJ. (FIG. 11G) RD cells were treated with peptides S78, S78A, S82A, or S78-3A at the concentration of 25 μM for 2 hours and then infected with EV-A71 at the MOI of 0.1 for 24 hours. Viral titration was calculated. The Statistical analyses were carried out using Student's t-test. *: p<0.05, **: p<0.01, ***: p<0.001. Data are expressed as mean ±SD.
After cell lysis in Nonidet-P40 (NP-40) buffer, the cell lysates were centrifuged, and the concentration was determined by Bradford assay (Bio-Rad). 20 μg of protein was used for 12% SDS-PAGE and transferred onto polyvinylidene fluoride membrane (PVDF) (GE, MA, USA). Following 5% bovine serum albumin (BSA) blocking for 1 hrs, the membrane was incubated with antibodies (1:1000) against Hsp27 (sc-13132), pHsp27-Ser15 (ab76313), pHsp27-Ser78 (ADI-SPA-523), pHsp27-Ser82 (ab155987), VP1 (GTX132339), β-Actin (sc-47778), hnRNP A1 (sc-32301), or GAPDH (sc-32233) overnight in 4° C. After secondary antibodies (HRP-conjugated Affinipure Goat Anti-Mouse IgG(H+L), SA00001-1, and HRP-conjugated Affinipure Goat Anti-Rabbit IgG(H+L), SA00001-2) incubation for 1 hrs, the protein was visualized with a chemiluminescence reagent (PerkinElmer, MA, USA) on Bio-Rad Chemidoc Imaging System. The protein bands were quantified by densitometry with ImageJ if necessary.

[4] = system: EV-A71; experiment: Virus titration (TCID50); details: 25 μM for 2 hours, EV-A71 MOI 0.1 for 24 hours, RD cells (FIG. 11G)
Method: as §2, with “The Statistical analyses were carried out using Student's t-test. *: p<0.05, **: p<0.01, ***: p<0.001.” left out
as §3, with “(FIG. 11B) RD cells were pre-treated with peptides NC at indicated concentrations for 2 hours and infected with EV-A71 at the MOI of 1 for 9 hours.” left out, “±SD. […]” for “±SD.”

[5] = system: RD cells; experiment: CCK-8 assay; details: data not shown
Method: (§4) RD cells were seeded in 96-well cell plates (1×10^4/well) and placed in the 5% CO2 incubator for 1 day. Then the cells were treated with peptides for 2 days. 90 μl medium and 10 μl of CCK-8 (BioSharp, BS350B) was added to each well of the 96-well plate, which were incubated at 37° C. for 1 h. A microplate reader (BioTek, Synergy H1) was used to measure the OD value of each well at 450 nm.

[6] = system: 2Apro-induced relocalization of Hsp27 and hnRNP A1 in RD cells; experiment: Immunofluorescence colocalization assay of 2Apro-induced relocalization of Hsp27 and hnRNP A1; details: 25 μM for 2 hours, transfected with 2Apro for 24 hours
Method: FIGS. 9A-9B Peptide S78 blocks the 2A^pro-induced relocalization of Hsp27 and hnRNP A1. RD cells on the coverslips were treated with peptides (S78, S78A, and S82A) at the concentration of 25 μM for 2 hours, and then transfected with 2A^pro for 24 hours. The cells were fixed and stained with anti-Hsp27and anti-hnRNPAI, followed by Alexa Fluor 488-conjugated anti-rabbit antibody and Alexa Fluor 594-conjugated anti-mouse antibody. The nuclei were stained with Hoechst. The images were captured by Nikon A1HD25 Confocal Microscope. The JACoP-plugin of the extended ImageJ version Fiji was used to compute the M1 colocalization coefficient, in which (FIG. 9A) is M1 colocalization coefficient for the fraction of Hsp27 in Hoechst and (FIG. 9B) is the M1 colocalization coefficient for the fraction of hnRNP A1 in Hoechst. Statistical analyses were carried out using Student's t-test. *: p<0.05, **: p<0.01, ***: p<0.001. Data are expressed as mean ±SD.
as §1

[7] = CCK-8 assay; details: human; RD cells, data not shown
Method: as §4

Ac-RKKRRQRRRAYSRAAAAQLSS-NH2 [S78-3A]
redistribution of Hsp27 and hnRNP A1 in EV-A71-infected RD cells [1]: partially suppressed | effect on viral IRES activity (in words) [2]: mildly decreased | reduction of VP1 level (densitometric assay) [3]: about 60% | EV-A71 VP1 protein level (in words) [3]: much weaker | effect on viral titer (in words) [4]: mildly decreased | CC50 (in words) [5]: high

Ac-RKKRRQRRRAYSRALSRQLAS-NH2 [S82A]
redistribution of Hsp27 and hnRNP A1 in EV-A71-infected RD cells [1]: dramatically blocked | localization of Hsp27 and hnRNP A1 in mock RD cells ([1]; without EV-A71): not affected | 2Apro-induced relocalization of Hsp27 and hnRNP A1 [6]: almost completely blocked | reduction of VP1 level (densitometric assay) [3]: > 90% | EV-A71 VP1 protein level (in words) [3]: a little bit weaker inhibition | CC50 at 2 days [7]: > 600 µM
